From ChEMBL document CHEMBL5046289, “Targeting the S2 Subsite Enables the Structure-Based Discovery of Novel Highly Selective Factor XIa Inhibitors” (J Med Chem, 2022)
Activity calls are given as the source filed them. The rule behind the calls is not given here.

How the values were obtained:
Coagulation factor XI = Coagulation factor XI (Homo sapiens, UniProt P03951); assay: Inhibition of coagulation factor XIa (unknown origin) assessed as chromogenic substrate hydrolysis using CS-21(66) as substrate incubated for 1 hr by spectrophotometer based microplate reader method
Coagulation factor X = Coagulation factor X (Homo sapiens, UniProt P00742); assay: Inhibition of coagulation factor Xa (unknown origin) assessed as chromogenic substrate using CS-11(22) as substrate incubated for 1 hr by spectrophotometer based microplate reader method
[1] = molecular target: T1, Coagulation factor VII (Homo sapiens) (UniProt P08709); assay: Inhibition of coagulation factor VIIa (unknown origin) assessed as chromogenic substrate using chromozyme t-PA as substrate at 1 mM incubated for 1 hr by spectrophotometer based microplate reader method
T1 sequence (whole entry): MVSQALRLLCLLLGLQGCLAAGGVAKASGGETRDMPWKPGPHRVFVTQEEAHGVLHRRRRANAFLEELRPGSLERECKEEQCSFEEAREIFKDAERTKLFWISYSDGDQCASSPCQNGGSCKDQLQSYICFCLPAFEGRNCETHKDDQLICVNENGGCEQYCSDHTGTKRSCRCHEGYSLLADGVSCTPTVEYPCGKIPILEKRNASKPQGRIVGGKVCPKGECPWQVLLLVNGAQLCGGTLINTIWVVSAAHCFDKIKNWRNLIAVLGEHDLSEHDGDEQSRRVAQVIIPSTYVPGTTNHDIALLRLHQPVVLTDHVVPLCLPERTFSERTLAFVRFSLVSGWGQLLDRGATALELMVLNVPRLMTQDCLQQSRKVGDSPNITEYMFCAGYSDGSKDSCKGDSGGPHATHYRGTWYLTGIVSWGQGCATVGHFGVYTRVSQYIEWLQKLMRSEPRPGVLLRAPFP

[2] = molecular target: Serine protease 1 (Homo sapiens) (UniProt P07477); assay: Inhibition of trypsin (unknown origin) assessed as chromogenic substrate using CS-11(22) as substrate at 1 mM incubated for 1 hr by spectrophotometer based microplate reader method
Homo sapiens = species on record: Homo sapiens; assay: Selectivity index, ratio of IC50 for coagulation factor Xa (unknown origin) to IC50 for coagulation factor XIa (unknown origin)
[3] = Half life in Sprague-Dawley rat at 10 mg/kg, iv after 0.083 to 24 hrs by LC-MS/MS analysis; assay type: ADME, organism-based; conditions: in vivo, time 0.083-24 hrs
Mus musculus = assay: Antithrombotic activity in C57BL/6J mouse model of FeCl3-induced carotid artery thrombosis assessed as time of occlusion pretreated at 6.5 mg/kg for 10 mins followed by FeCl3 addition for 3 mins and measured after 30 mins; assay type: functional, organism-based
[4] = Acute toxicity in ICR male mouse assessed as effect on weight loss at 50 to 100 mg/kg, iv as single dose for 14 days; assay type: organism-based; conditions: in vivo, 336 h, dose 50-100 mg/kg, time 14 day

Chain of Serine protease 1 (Homo sapiens) (P07477 whole entry): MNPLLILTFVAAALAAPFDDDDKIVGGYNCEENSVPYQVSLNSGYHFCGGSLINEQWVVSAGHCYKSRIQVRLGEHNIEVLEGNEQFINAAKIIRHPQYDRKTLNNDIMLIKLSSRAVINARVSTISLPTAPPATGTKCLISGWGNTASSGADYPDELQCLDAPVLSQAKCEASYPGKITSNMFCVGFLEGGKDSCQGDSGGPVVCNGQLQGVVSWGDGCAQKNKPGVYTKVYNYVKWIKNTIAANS
Chain of Coagulation factor XI (P03951 19-387 limits assumed): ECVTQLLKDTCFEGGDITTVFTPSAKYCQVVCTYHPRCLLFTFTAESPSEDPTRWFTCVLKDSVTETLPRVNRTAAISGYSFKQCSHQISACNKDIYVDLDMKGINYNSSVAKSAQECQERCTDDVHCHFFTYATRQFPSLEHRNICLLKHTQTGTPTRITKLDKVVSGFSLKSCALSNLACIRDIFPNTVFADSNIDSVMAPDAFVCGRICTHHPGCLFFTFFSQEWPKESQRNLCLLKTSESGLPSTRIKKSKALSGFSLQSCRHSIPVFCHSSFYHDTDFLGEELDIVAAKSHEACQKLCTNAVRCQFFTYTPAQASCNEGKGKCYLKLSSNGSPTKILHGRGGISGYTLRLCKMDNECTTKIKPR
Chain of Coagulation factor XI (P03951 388-625 limits assumed): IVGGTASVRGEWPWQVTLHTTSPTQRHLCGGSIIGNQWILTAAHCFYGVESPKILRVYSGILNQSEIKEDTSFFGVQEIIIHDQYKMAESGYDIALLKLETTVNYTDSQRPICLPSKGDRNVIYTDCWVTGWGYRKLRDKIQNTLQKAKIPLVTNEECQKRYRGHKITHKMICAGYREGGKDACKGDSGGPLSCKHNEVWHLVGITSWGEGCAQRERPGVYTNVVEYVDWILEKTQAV
Chain of Coagulation factor X (P00742 41-179 limits assumed): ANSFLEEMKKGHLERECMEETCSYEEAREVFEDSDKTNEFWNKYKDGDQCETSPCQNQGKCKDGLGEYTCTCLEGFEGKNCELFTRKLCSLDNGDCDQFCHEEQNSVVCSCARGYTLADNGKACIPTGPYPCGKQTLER
Chain of Coagulation factor X (P00742 235-488 limits assumed): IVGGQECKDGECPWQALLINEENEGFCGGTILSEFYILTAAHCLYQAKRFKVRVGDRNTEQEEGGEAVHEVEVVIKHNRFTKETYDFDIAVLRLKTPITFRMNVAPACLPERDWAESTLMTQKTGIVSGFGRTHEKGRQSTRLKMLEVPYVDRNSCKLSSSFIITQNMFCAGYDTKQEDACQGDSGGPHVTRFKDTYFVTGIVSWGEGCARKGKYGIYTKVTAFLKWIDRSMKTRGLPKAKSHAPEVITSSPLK

SMILES: O=C(/C=C/c1cc(Cl)ccc1-n1cnnn1)N[C@@H](CC(=O)N1CCN(c2ccccc2)CC1)C(=O)Nc1ccc(C(=O)O)cc1
- IC50 (Coagulation factor XI): 0.0142 µM
- IC50 (Coagulation factor X): 340 µM
- inhibition [1]: inactive
- inhibition [2]: inactive
- Ratio IC50 (Homo sapiens): > 5000
- half-life [3]: 1.26 h
- Activity (Mus musculus): inactive
- Activity [4]: Non-Toxic
